Experimental data published in patent US9181236B2, “2-spiro-substituted iminothiazines and their mono-and dioxides as bace inhibitors, compositions and their use” (Merck Sharp & Dohme Corp., priority 2011, dated 2015).

Assays:
[1] = target: purified human autoBACE-2 (Homo sapiens (Human), UniProt Q9Y5Z0); assay: BACE-2 Assay (BACE-HTRF assay); assay type: biochemical; details: Ki calculated from IC50 using the Cheng-Prusoff equation; read-out: BACE2 Ki
Protocol: Inhibitor IC50s at purified human autoBACE-2 are determined in a time-resolved endpoint proteolysis assay that measures hydrolysis of the QSY7-[…]-Eu-amide FRET peptide substrate (BACE-HTRF assay). […] DMSO is present at 5% final concentration in the assay. Following laser excitation of sample wells at 320 nm, the fluorescence signal at 620 nm is collected for 400 ms following a 50 μs delay on a RUBYstar HTRF plate reader (BMG Labtechnologies). Raw RFU data is normalized to maximum (1.0 nM BACE/DMSO) and minimum (no enzyme/DMSO) RFU values. […] The Ki values are calculated from the IC50 using the Cheng-Prusoff equation.

[2] = target: soluble human BACE1 catalytic domain (Homo sapiens (Human), UniProt P56817); assay: BACE1 HTRF FRET Assay; assay type: biochemical; details: for Ki: Ki calculated from IC50 using the Cheng-Prusoff equation
Chain of soluble human BACE1 catalytic domain (P56817 75-416): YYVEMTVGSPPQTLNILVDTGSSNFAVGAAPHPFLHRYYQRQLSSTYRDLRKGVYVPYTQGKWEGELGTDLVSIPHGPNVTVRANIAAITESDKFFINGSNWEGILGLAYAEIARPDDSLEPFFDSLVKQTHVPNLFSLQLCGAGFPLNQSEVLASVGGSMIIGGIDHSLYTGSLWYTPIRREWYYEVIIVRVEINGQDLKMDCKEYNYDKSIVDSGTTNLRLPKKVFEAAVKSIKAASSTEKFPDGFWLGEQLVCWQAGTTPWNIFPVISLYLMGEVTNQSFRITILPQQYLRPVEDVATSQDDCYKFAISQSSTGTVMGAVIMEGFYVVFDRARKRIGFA

Chain of purified human autoBACE-2 (Q9Y5Z0 63-473 limits assumed): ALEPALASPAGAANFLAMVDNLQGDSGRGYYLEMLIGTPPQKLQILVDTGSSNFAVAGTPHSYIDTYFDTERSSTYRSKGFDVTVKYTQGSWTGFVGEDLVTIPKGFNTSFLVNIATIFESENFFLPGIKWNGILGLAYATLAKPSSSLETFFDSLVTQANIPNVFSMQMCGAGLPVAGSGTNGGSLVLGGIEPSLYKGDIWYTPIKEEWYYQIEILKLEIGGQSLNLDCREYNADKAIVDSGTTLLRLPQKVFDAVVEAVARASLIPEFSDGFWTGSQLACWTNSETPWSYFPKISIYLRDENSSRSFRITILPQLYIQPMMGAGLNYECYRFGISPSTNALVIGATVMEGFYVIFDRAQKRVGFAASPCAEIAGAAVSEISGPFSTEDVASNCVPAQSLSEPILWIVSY

Compound | Ki [1] [nM] | Ki [2] [nM] | inhibition at 10 µM ([2]; read-out: BACE1 % Inh. at 10 μM) [%]
C[C@@]1(c2sc(-c3cncc(C(F)(F)F)c3)cc2Cl)CS(=O)(=O)C2(CCOCC2)C(=N)N1 [Example 54] | < 50 | 157 | –
COc1cc(C#N)cc(-c2cc(Cl)c([C@]3(C)CS(=O)(=O)C4(CCOCC4)C(=N)N3)s2)c1 [Example 57] | < 20 | 161 | –
COc1cccc2cc(-c3cc(Cl)c([C@]4(C)CS(=O)(=O)C5(CCC5)C(=N)N4)s3)[nH]c12 [Example 58] | 1 | 7.7 | –
C[C@@]1(c2sc(-c3cncc(C#N)c3)cc2Cl)CS(=O)(=O)C2(CCC2)C(=N)N1 [Example 59] | < 20 | 56 | –
C[C@@]1(c2sc(-c3cccc(C#N)c3)cc2Cl)CS(=O)(=O)C2(CCC2)C(=N)N1 [Example 61] | < 20 | 35.6 | –
C[C@@]1(c2sc(-c3cccc(-c4nnco4)c3)cc2Cl)CS(=O)(=O)C2(CCC2)C(=N)N1 [Example 61a] | < 50 | 18.6 | –
COc1cnc(C(=O)Nc2ccc(F)c([C@]3(C)CS(=O)(=O)[C@]4(CCOC4)C(=N)N3)c2)cn1 [Example 62] | < 20 | 25.4 | –
COc1ccc(C(=O)Nc2ccc(F)c([C@]3(C)CS(=O)(=O)[C@]4(CCOC4)C(=N)N3)c2)nc1 [Example 62a] | < 20 | 30.3 | –
C[C@@]1(c2cc(NC(=O)c3ccc(F)cn3)ccc2F)CS(=O)(=O)[C@]2(CCOC2)C(=N)N1 [Example 62b] | 4.3 | 24 | –
C[C@@]1(c2cc(NC(=O)c3ccc(Cl)cn3)ccc2F)CS(=O)(=O)[C@]2(CCOC2)C(=N)N1 [Example 62c] | 1.8 | 8.1 | –
C[C@@]1(c2cc(NC(=O)c3ccc(C(F)(F)F)cn3)ccc2F)CS(=O)(=O)[C@]2(CCOC2)C(=N)N1 [Example 62d] | < 50 | 17 | –
C[C@@]1(c2cc(NC(=O)c3ccc(C#N)cn3)ccc2F)CS(=O)(=O)[C@]2(CCOC2)C(=N)N1 [Example 62e] | < 20 | 6.1 | –
C[C@@]1(c2sc(-c3cncc(C#N)c3)cc2Cl)CS(=O)(=O)[C@]2(CCOC2)C(=N)N1 [Example 62f] | < 20 | 67.1 | –
COc1cccc2cc(-c3cc(Cl)c([C@]4(C)CS(=O)(=O)[C@]5(CCOC5)C(=N)N4)s3)[nH]c12 [Example 62g] | 0.9 | 6.3 | –
C[C@@]1(c2sc(-c3cncc(-c4ncco4)c3)cc2Cl)CS(=O)(=O)[C@]2(CCOC2)C(=N)N1 [Example 62h] | 2.8 | 56.7 | –
C[C@@]1(c2sc(-c3ccnc(-c4ccoc4)c3)cc2Cl)CS(=O)(=O)[C@]2(CCOC2)C(=N)N1 [Example 62j] | < 50 | 296 | –
C[C@@]1(c2sc(-c3ccnc(-c4cccs4)c3)cc2Cl)CS(=O)(=O)[C@]2(CCOC2)C(=N)N1 [Example 62k] | < 20 | 305 | –
C[C@@]1(c2sc(-c3ccnc(-c4ccco4)c3)cc2Cl)CS(=O)(=O)[C@]2(CCOC2)C(=N)N1 [Example 62l] | 2.2 | 45.3 | –
C[C@@]1(c2sc(-c3ccnc(-c4ccccc4)c3)cc2Cl)CS(=O)(=O)[C@]2(CCOC2)C(=N)N1 [Example 62n] | < 20 | 313 | –
COc1cnc(C(=O)Nc2ccc(F)c([C@]3(C)CS(=O)(=O)[C@@]4(CCOC4)C(=N)N3)c2)cn1 [Example 63] | < 50 | 41 | –
COc1ccc(C(=O)Nc2ccc(F)c([C@]3(C)CS(=O)(=O)[C@@]4(CCOC4)C(=N)N3)c2)nc1 [Example 63a] | < 20 | 24.2 | –
C[C@@]1(c2cc(NC(=O)c3ccc(F)cn3)ccc2F)CS(=O)(=O)[C@@]2(CCOC2)C(=N)N1 [Example 63b] | 2.7 | 18.7 | –

Compound | Ki [1] [nM] | Ki [2] [nM] | inhibition at 10 µM ([2]; read-out: BACE1 % Inh. at 10 μM) [%]
C[C@@]1(c2cc(NC(=O)c3ccc(Cl)cn3)ccc2F)CS(=O)(=O)[C@@]2(CCOC2)C(=N)N1 [Example 63c] | 1.3 | 5.9 | –
C[C@@]1(c2cc(NC(=O)c3ccc(C#N)cn3)ccc2F)CS(=O)(=O)[C@@]2(CCOC2)C(=N)N1 [Example 63d] | < 20 | 5.2 | –
C[C@@]1(c2sc(-c3cncc(C#N)c3)cc2Cl)CS(=O)(=O)[C@@]2(CCOC2)C(=N)N1 [Example 63e] | < 50 | 192 | –
COc1cccc2cc(-c3cc(Cl)c([C@]4(C)CS(=O)(=O)[C@@]5(CCOC5)C(=N)N4)s3)[nH]c12 [Example 63f] | 1.5 | 14.2 | –
C[C@@]1(c2sc(-c3cccc(-c4nnco4)c3)cc2Cl)CS(=O)(=O)[C@@]2(CCOC2)C(=N)N1 [Example 63g] | < 50 | 20.2 | –
C[C@@]1(c2sc(-c3cncc(-c4ncco4)c3)cc2Cl)CS(=O)(=O)[C@@]2(CCOC2)C(=N)N1 [Example 63h] | < 20 | 107 | –
C[C@@]1(c2sc(-c3ccnc(-c4ccsc4)c3)cc2Cl)CS(=O)(=O)[C@@]2(CCOC2)C(=N)N1 [Example 63n] | < 20 | 428 | –
COc1cccc2cc(-c3cc(Cl)c([C@]4(C)CS(=O)(=O)C5(CC5)C(=N)N4)s3)[nH]c12 [Example 64] | 1 | 10 | –
C[C@@]1(c2sc(-c3cncc(C#N)c3)cc2Cl)CS(=O)(=O)C2(CC2)C(=N)N1 [Example 65] | < 50 | 108 | –
C[C@@]1(c2sc(-c3cccc(-c4nnco4)c3)cc2Cl)CS(=O)(=O)C2(CC2)C(=N)N1 [Example 65a] | < 50 | 11 | –
C[C@@]1(c2cc(NC(=O)c3ccc(F)cn3)ccc2F)CS(=O)(=O)C2(CC(O)C2)C(=N)N1 (some centres unmarked) [Example 74] | 3.8 | 21.8 | –
C[C@@]1(c2cc(NC(=O)c3ccc(F)cn3)ccc2F)CS(=O)(=O)C2(CC(O)C2)C(=N)N1 (some centres unmarked) [Example 75] | 1.7 | 12.5 | –
C[C@@]1(c2sc(C#CC3(c4ccccc4)CCCC3)cc2Cl)CS(=O)(=O)C2(CCC2)C(=N)N1 [Example 77] | < 50 | 2550 | –
CC(C)(C)C#Cc1cc(Cl)c([C@]2(C)CS(=O)(=O)C3(CCC3)C(=N)N2)s1 [Example 77a] | < 20 | 165 | –
C[C@@]1(c2sc(C#CC3CCCC3)cc2Cl)CS(=O)(=O)C2(CCC2)C(=N)N1 [Example 77b] | < 50 | 110 | –
C[C@@]1(c2sc(C#CCc3cc(F)c(F)c(F)c3)cc2Cl)CS(=O)(=O)C2(CCC2)C(=N)N1 [Example 78] | < 20 | – | 17
CCc1cccc(NC(=O)c2cc(Cl)c([C@]3(C)CS(=O)(=O)C4(CC4)C(=N)N3)s2)n1 [Example 79] | < 20 | 88 | –
COc1cccc(NC(=O)c2cc(Cl)c([C@]3(C)CS(=O)(=O)C4(CC4)C(=N)N3)s2)n1 [Example 79a] | < 20 | 74 | –
C[C@@]1(c2sc(C(=O)Nc3cccc(Cl)n3)cc2Cl)CS(=O)(=O)C2(CC2)C(=N)N1 [Example 79b] | 4 | 17 | –
C[C@@]1(c2sc(C(=O)Nc3cccc(F)n3)cc2Cl)CS(=O)(=O)C2(CC2)C(=N)N1 [Example 79c] | < 50 | 227 | –
Cc1cccc(NC(=O)c2cc(Cl)c([C@]3(C)CS(=O)(=O)C4(CC4)C(=N)N3)s2)n1 [Example 79d] | < 20 | 30 | –
